The values below are quoted from earlier work in paper PMC9046186, “A distinctive ligand recognition mechanism by the human vasoactive intestinal polypeptide receptor 2” (Nature Communications, 2022).

The subject of one data set is VIP2R. The following applies: introduction, Fig. 1a, b; no reference given.
The test system of the next data set is VIP1R. The settings on record: introduction, Fig. 1a, b; no reference given.

On to Vasoactive intestinal peptide [VIP], for which the “affinity at VIP2R” value with VIP2R is on record as “comparable affinity”. Also, the “affinity at VIP1R” value in the data set on VIP1R is “comparable affinity”.
As for “pituitary adenylate cyclase-activating polypeptide [PACAP38]”, the “affinity at VIP2R” value in the data set on VIP2R was “comparable affinity”. Further, in the data set on VIP1R, the “affinity at VIP1R” value is recorded as “comparable affinity”.
